Laboratory results published in the NIST ThermoML archive (doi:10.1016/j.jct.2010.08.019).

Assay: refractive index (Na D-line) (dimensionless); xn = mol fraction of the nth substance listed
Conditions: 101 kPa, Liquid, Standard Abbe refractometry

C1CCOCC1 [tetrahydropyran] + CC(C)O
Conditions	refractive index
293.15 K, x2 = 0	1.39161
293.15 K, x2 = 0.0501	1.39085
293.15 K, x2 = 0.0999	1.3902
293.15 K, x2 = 0.1499	1.38954
293.15 K, x2 = 0.2003	1.38897
293.15 K, x2 = 0.2506	1.38839
293.15 K, x2 = 0.2999	1.38777
293.15 K, x2 = 0.35	1.38719
293.15 K, x2 = 0.3999	1.3866
293.15 K, x2 = 0.4499	1.38599
293.15 K, x2 = 0.5001	1.38539
293.15 K, x2 = 0.5502	1.38478
293.15 K, x2 = 0.6001	1.38415
293.15 K, x2 = 0.6499	1.38347
293.15 K, x2 = 0.7001	1.3827
293.15 K, x2 = 0.7499	1.38194
293.15 K, x2 = 0.8	1.38113
293.15 K, x2 = 0.8501	1.38021
293.15 K, x2 = 0.9001	1.37932
293.15 K, x2 = 0.9499	1.37832
303.15 K, x2 = 0	1.3866
303.15 K, x2 = 0.0502	1.38571
303.15 K, x2 = 0.1001	1.38505
303.15 K, x2 = 0.1501	1.38441
303.15 K, x2 = 0.1998	1.38377
303.15 K, x2 = 0.2499	1.3832
303.15 K, x2 = 0.3	1.38259
303.15 K, x2 = 0.3499	1.38201
303.15 K, x2 = 0.4001	1.38144
303.15 K, x2 = 0.4501	1.38087
303.15 K, x2 = 0.5001	1.38026
303.15 K, x2 = 0.55	1.37965
303.15 K, x2 = 0.6	1.37903
303.15 K, x2 = 0.65	1.37841
303.15 K, x2 = 0.6999	1.37775
303.15 K, x2 = 0.7499	1.37704
303.15 K, x2 = 0.8001	1.37633
303.15 K, x2 = 0.85	1.37553
303.15 K, x2 = 0.8998	1.37469
303.15 K, x2 = 0.9499	1.3738
313.15 K, x2 = 0	1.38143
313.15 K, x2 = 0.05	1.38065
313.15 K, x2 = 0.1	1.37995
313.15 K, x2 = 0.1501	1.37929
313.15 K, x2 = 0.2	1.37868
313.15 K, x2 = 0.2499	1.37807
313.15 K, x2 = 0.2997	1.37748
313.15 K, x2 = 0.3499	1.37692
313.15 K, x2 = 0.4	1.37632
313.15 K, x2 = 0.4504	1.37573
313.15 K, x2 = 0.5001	1.37513
313.15 K, x2 = 0.55	1.37457
313.15 K, x2 = 0.5999	1.37399
313.15 K, x2 = 0.65	1.37339
313.15 K, x2 = 0.7001	1.3728
313.15 K, x2 = 0.7502	1.37216
313.15 K, x2 = 0.7999	1.37151
313.15 K, x2 = 0.85	1.37081
313.15 K, x2 = 0.8998	1.37005
313.15 K, x2 = 0.9498	1.36931
323.15 K, x2 = 0	1.37627
323.15 K, x2 = 0.05	1.3752
323.15 K, x2 = 0.1	1.37442
323.15 K, x2 = 0.1501	1.37378
323.15 K, x2 = 0.2	1.37312
323.15 K, x2 = 0.2499	1.37252
323.15 K, x2 = 0.2997	1.37192
323.15 K, x2 = 0.3499	1.37127
323.15 K, x2 = 0.4	1.37072
323.15 K, x2 = 0.4504	1.37012
323.15 K, x2 = 0.5001	1.3695
323.15 K, x2 = 0.5501	1.36901
323.15 K, x2 = 0.6	1.36843
323.15 K, x2 = 0.65	1.36789
323.15 K, x2 = 0.6999	1.36729
323.15 K, x2 = 0.7502	1.36664
323.15 K, x2 = 0.8002	1.36608
323.15 K, x2 = 0.8501	1.36542
323.15 K, x2 = 0.8998	1.36485
323.15 K, x2 = 0.9501	1.3642
